Source: patent publication US7345068B2, “Aromatic amino acid derivatives and medicinal compositions” (priority 2002, dated 2008)

Assays:
[1] = Acute toxicity test, intravenous administration of mice (LD50); conditions: mouse, in vivo
Procedure: Further, with respect to the compounds of Examples 77-79 and Example 98, an acute toxicity test for intravenous administration of mice were carried out to obtain LD50.

[2] = molecular target: T1, LAT1 (Homo sapiens, UniProt Q01650); experiment: LAT1 inhibiting activity: inhibition of 14C-L-leucine uptake in T24 cells; assay type: cell-based; conditions: 1 μM 14C-Leu, 1-minute uptake
T1 construct: Using human bladder cancer cell strain T24 cells, in which LAT1 only was strongly expressed; endogenous in cells; host or cells: T24 human bladder cancer cells
Procedure: 1) To each of the weighed test compounds, DMSO was added to prepare a 100 mM solution or suspension as a DMSO stock. In an assay, the stock was diluted 1,000 fold with a buffer described below. The final concentration of the test compound was 100 μM and the final concentration of DMSO was 0.1%.
2) The LAT1 inhibiting activity of the test compound was determined in the following manner. Using human bladder cancer cell strain T24 cells, in which LAT1 only was strongly expressed, inhibiting activity of each test compound against “^14C”-L-leucine uptake was determined as the LAT1 inhibiting activity.
T24 cells in a logarithmic growth-phase were transferred to a 24-well plate at 0.8×10^5 cell/well and cultured at 37° C. for 2 days. After the plate was incubated at 37° C. on a water bath for 5 minutes, the fixed cells were washed three times with a Hank's balanced salt solution (HBSS: 25 mM HEPES, 125 mM choline chloride, 5.6 mM glucose, 4.8 mM KCl, 1.2 mM MgSO4, 1.2 mM KH2PO4, 1.3 mM CaCl2, pH 7.4) warmed to 37° C., not containing Na^+, to which 500 μl of HBSS (37° C.) was added. Then, further incubation was carried out for 7 minutes.
After the incubation was finished, a supernatant was replaced with HBSS containing 1 μM ^14C-Leu and 100 μM test compound (37° C.), followed by 1-minute uptake. Then, the cells were washed three times with HBSS of 4° C. The washed cells were added with 500 μl of 0.1 N NaOH to dissolve the cells for 20 minutes. The cell solution was transferred to a vial, to which 3 ml of a scintillator was added to measure the radioactivity with a liquid scintillation counter.
Inhibition % was calculated by the following formula. Inhibition %=100−(radioactivity of the well added with the test compound)/(radioactivity of the well not added with the test compound)×100

[3] = test system: human LAT1 (hLAT1); experiment: Inhibition of leucine uptake into hLAT1 expressing Xenopus oocytes; assay type: cell-based; conditions: IC50 hLAT2 expressing cells / IC50 hLAT1 expressing cells
Procedure: (§1) 1) First, human LAT1 (hereinafter referred to as hLAT1), human LAT2 (hereinafter referred to as hLAT2) and human 4F2hc (hereinafter referred to as h4F2hc) were linearized by restriction enzyme treatment. After ethanol precipitation, they were dissolved in a DEPC treatment solution to prepare a mold cDNA. Then, in vitro transcription reaction was carried out in the following manner.
(§2) Reaction composition (50 μl in total) • Mold cDNA 1.5 μg • RNasin RNase inhibitor (Promega) 100 U • rNTP (Amersham. Pharmacia) 10 mM each (rGTP was 1 mM) • DTT 30 mM • m7G(5′)ppp(5′)G (Amersham. Pharmacia) […] • RNA polymerase (Stratagene) 50 U • Transcription buffer
(§3) As the RNA polymerase for hLAT1, hLAT2 and h4F2hc, T3, SP6 and T7 were used, respectively.
(§4) After the above reagents were mixed, they were reacted at 37° C. for 10 minutes, added with 1 μL of 5 mM rGTP, and reacted again at 37° C. for 10 minutes. Further, 1 μL of 5 mM rGTP was added and the reaction was carried out again at 37° C. for 10 minutes. Then, RNase-free DNase (Stratagene) was added and mixed, followed by incubation at 37° C. for 20 minutes. The reaction solution was sequentially extracted with phenol/chloroform, and then with chloroform. Then, half amount of 7.5 M NH4OAc and 2.5-fold amount of cold ethanol were added to perform ethanol precipitation. After centrifugation at 15000 rpm for 30 minutes, the resulting precipitate was washed with cold 80% ethanol and dissolved in 100 μL of a DEPC treatment solution. Thereafter, ethanol precipitation was performed again. The precipitate obtained by centrifugation at 15000 rpm for 30 minutes was washed with cold 80% ethanol and dried for 20 minutes in a centrifugal concentrator. Then, it was dissolved in a DEPC treatment solution to 0.5 mg/mL to prepare a cRNA solution. Thus, cRNA was prepared by in vitro transcription reaction.
(§5) 2) Xenopus laevis was anesthetized by immersing into an anesthetic solution (0.2% MS-222, 0.3% KHCO3), and then cut open in the abdominal region on ice to take out an oocyte mass under the peritoneum. The extracted oocyte mass was shredded with tweezers, which was added to an OR2 culture medium (5 mM HEPES, 82.5 mM NaCl, 2 mM KCl, 1 mM MgCl2, pH 7.5) containing 2 mg/mL of collagenase, incubated at room temperature for about 30 minutes, washed with the OR2 culture medium and transferred into a Barth culture medium (10 mM HEPES, 88 mM NaCl, 1 mM KCl, 0.33 mM Ca(NO3)2, 0.41 mM CaCl2, 0.82 mM MgSO4, 2.4 mM NaHCO3, pH 7.4).
(§6) Then, a follicular cell layer covering the oocytes was peeled under a stereoscopic microscope to isolate the oocytes, to which 50 nL of a cRNA solution was added, respectively. As the cRNA, an equimolar mixture of hLAT1 cRNA and h4F2hc cRNA was injected into the oocytes for hLAT1 expression, and an equimolar mixture of hLAT2 cRNA and h4F2hc cRNA was injected into the oocytes for hLAT2 expression.
(§7) The control cell was injected with distilled water.
(§8) 3) The oocytes after the injection were cultured in a Barth culture medium containing gentamicin for 2 days, from which healthy oocytes were selected and transferred to a 24-well plate at 8-10 cell/well.
(§9) First, after washing twice with choline 100 (5 mM HEPES, 100 mM choline Cl, 2 mM KCl, 1.8 mM CaCl2, 1 mM MgCl2, pH 7.4) at room temperature, choline 100 containing 10 μM ^14C-Leu and specimens of various concentrations was added for an uptake for 30 minutes. Then, after washing with choline 100 of 4° C. six times, the oocytes were transferred to vials one by one and 250 μL of 10% SDS was added thereto, which was shaken at room temperature for an hour to be dissolved. After an hour, the solution was added with 3 mL of a scintillator to measure the radioactivity using a liquid scintillation counter. Inhibition rate was calculated by the following formula using an average value of 8 to 10 cells. Inhibition rate (%)=100−(radioactivity of the well added with the test compound)/(radioactivity of the well not added with the test compound)×100 […]

[4] = molecular target: T2, human LAT1 (hLAT1) (Homo sapiens, UniProt Q01650); experiment: as above; assay type: cell-based; conditions: 10 μM 14C-Leu, 30 minutes uptake, oocytes with hLAT1 and h4F2hc cRNA
T2 construct: expressed in transfected cells; host or cells: Xenopus laevis oocytes injected with cRNA
Procedure: as §1, §2, §3, §4, §5, §6, §7, §8, §9

[5] = test system: sarcoma 180 cells; experiment: Sarcoma 180 subcutaneous implant in mice, tumor weight; assay type: in vivo, ICR mice; conditions: 100 mg/kg intravenously for 7 days; tumor weight 10 days after implantation
Procedure: In an inguinal region of ICR mice, 1×10^6 sarcoma 180 cells were implanted subcutaneously. After 24 hours from the implantation, administration of the test compounds (Example 6-3) and Example 49-3)) was started, which was continued intravenously for 7 days. Each of the test compounds was dissolved in a physiologic saline containing 10% DMSO and 10% Tween 80 so that the amount of the test compound became 100 mg/kg, which was intravenously administered in an amount of 0.1 ml per 10 g of body weight. After 10 days from the implantation, tumor weight was measured and a proliferation inhibiting rate was calculated by the following formula to be compared with that of nontreated controls. Proliferation inhibiting rate (T/C)=[1−(average tumor weight of the group added with the test compound/average tumor weight of the control group)]×100

[6] = molecular target: T3, human LAT2 (hLAT2) (Homo sapiens, UniProt Q9UHI5); experiment: Inhibition of leucine uptake into hLAT2 expressing Xenopus oocytes; assay type: cell-based; conditions: 10 μM 14C-Leu, 30 minutes uptake, oocytes with hLAT2 and h4F2hc cRNA
T3 construct: expressed in transfected cells; host or cells: Xenopus laevis oocytes injected with cRNA
T3 sequence (Q9UHI5 1-535): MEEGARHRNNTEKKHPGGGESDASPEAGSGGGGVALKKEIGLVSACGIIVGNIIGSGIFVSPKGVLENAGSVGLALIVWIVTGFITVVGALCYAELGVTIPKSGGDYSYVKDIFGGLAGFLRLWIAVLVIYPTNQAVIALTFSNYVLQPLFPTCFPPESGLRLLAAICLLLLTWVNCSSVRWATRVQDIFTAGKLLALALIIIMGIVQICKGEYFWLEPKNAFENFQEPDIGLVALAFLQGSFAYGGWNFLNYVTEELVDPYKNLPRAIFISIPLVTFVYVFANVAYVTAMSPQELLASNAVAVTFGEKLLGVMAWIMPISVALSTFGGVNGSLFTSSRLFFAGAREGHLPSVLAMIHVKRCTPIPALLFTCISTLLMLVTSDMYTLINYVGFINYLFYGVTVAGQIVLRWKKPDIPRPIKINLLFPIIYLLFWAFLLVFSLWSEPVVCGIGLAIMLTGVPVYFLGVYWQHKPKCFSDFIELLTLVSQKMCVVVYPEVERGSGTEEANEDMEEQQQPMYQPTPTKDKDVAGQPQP
Procedure: as §1, §2, §3, §4, §5, §6, §7, §8, §9

T2 sequence (Q01650 whole entry): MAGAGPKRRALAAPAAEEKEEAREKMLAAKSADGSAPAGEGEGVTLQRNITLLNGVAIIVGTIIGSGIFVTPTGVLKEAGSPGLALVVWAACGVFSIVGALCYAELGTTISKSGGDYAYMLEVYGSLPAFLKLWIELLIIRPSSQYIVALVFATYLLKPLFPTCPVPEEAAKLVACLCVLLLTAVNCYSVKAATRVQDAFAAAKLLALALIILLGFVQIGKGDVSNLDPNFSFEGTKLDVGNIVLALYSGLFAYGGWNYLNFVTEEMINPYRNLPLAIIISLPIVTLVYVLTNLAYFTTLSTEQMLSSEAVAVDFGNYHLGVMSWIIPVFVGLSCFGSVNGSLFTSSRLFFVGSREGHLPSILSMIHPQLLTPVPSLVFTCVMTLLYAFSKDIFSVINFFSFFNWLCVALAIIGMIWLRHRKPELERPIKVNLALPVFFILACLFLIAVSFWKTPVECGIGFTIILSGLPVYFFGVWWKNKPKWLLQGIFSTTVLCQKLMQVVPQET
T1 sequence (Q01650 whole entry): as above
T1 sequence (P08195 102-630 partner): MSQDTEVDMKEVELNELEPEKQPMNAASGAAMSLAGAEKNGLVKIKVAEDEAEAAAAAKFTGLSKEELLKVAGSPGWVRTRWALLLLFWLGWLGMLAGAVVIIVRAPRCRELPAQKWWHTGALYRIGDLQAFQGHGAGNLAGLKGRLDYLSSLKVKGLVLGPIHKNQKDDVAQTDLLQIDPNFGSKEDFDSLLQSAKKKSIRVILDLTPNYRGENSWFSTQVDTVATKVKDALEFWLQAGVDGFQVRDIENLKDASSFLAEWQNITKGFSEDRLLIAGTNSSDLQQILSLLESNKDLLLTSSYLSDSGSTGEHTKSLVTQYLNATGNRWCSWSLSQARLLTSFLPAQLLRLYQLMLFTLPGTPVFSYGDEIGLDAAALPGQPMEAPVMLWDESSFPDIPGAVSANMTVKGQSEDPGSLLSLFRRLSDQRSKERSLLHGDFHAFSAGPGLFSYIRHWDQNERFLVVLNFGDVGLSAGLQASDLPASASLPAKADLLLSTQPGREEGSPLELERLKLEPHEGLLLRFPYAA

Row | Compound | IC50 [4] | melting point | IC50 [6] | LD50 [1] | IC50 [2] | Selectivity (L2/L1) [3] | proliferation inhibiting rate [5]
1 | NC1(C(=O)O)CC2CCC1C2 (centres unmarked) [BCH, 2-aminobicyclo-(2,2,1)-heptane-2-carboxylic acid, reference compound] |  |  |  | ≥ 300 mg/kg | 100000 nM |  | 
2 | N[C@@H](Cc1cc(Cl)c(OCCc2csc(-c3ccccc3)n2)c(Cl)c1)C(=O)O [Example 15] | < 1000 nM | 205 to 210 °C (dec.) | > 100000 nM |  |  | ≥ 100 times | 
3 | N[C@@H](Cc1cc(Cl)c(OCCc2coc(-c3ccc4ccccc4c3)n2)c(Cl)c1)C(=O)O [Example 17] | < 1000 nM | 232 to 233 °C (dec.) | > 100000 nM |  |  | ≥ 100 times | 
4 | COC(=O)[C@@H](N)Cc1cccc(Oc2ccc3ccccc3c2)c1.Cl [Example 49-3), 3-(2-naphthyloxy)-L-phenylalanine methyl ester hydrochloride] |  | 209 to 211 °C (dec.) |  |  |  |  | 41.3%
5 | N[C@@H](Cc1cccc(Oc2ccc(Oc3ccc(O)cc3)cc2)c1)C(=O)O [Example 57, 3-[4-(4-hydroxyphenoxy)phenoxy]-L-phenylalanine] |  | 234 to 237 °C (dec.) | 200 nM |  |  | 0.02 times | 
6 | N[C@@H](Cc1cccc(OCCc2ccc3ccccc3c2)c1)C(=O)O [Example 59, 3-[2-(2-naphthyl)ethoxy]-L-phenylalanine] |  | 210 to 214 °C (dec.) | < 1000 nM |  |  | ≤ 0.1 times | 
7 | N[C@@H](Cc1cccc(OCCc2ccc3c(c2)CCCC3)c1)C(=O)O [Example 60, 3-[2-[2-(5,6,7,8-tetrahydro-naphthyl)]ethoxy]-L-phenylalanine] |  | 198 to 202 °C (dec.) | < 1000 nM |  |  | ≤ 0.1 times | 

More lines, main results first:

Row | IC50 [4] | melting point | IC50 [6] | Compound | LD50 [1] | IC50 [2] | Selectivity (L2/L1) [3] | proliferation inhibiting rate [5]
8 | 100 nM | 233 to 238 °C (dec.) |  | N[C@@H](Cc1cc(Cl)c(OCc2cccc3nc(-c4ccccc4)oc23)c(Cl)c1)C(=O)O [Example 6-2), 3,5-dichloro-O-[(2-phenyl)-benzoxazol-7-yl]methyl-L-tyrosine] |  | 300 nM | 1000 times | 
9 |  | 225 to 225.5 °C (dec.) |  | COC(=O)[C@@H](N)Cc1cc(Cl)c(OCc2cccc3nc(-c4ccccc4)oc23)c(Cl)c1.Cl [Example 6-3), 3,5-Dichloro-O-[(2-phenyl)-benzoxazol-7-yl]methyl-L-tyrosine methyl ester hydrochloride] |  |  |  | 52.2%
10 | 700 nM | 198 to 205 °C | 69000 nM | N[C@@H](Cc1cc(Cl)c(OCCc2coc(-c3ccccc3)n2)c(Cl)c1)C(=O)O [Example 9] |  |  | 100 times | 
11 | < 1000 nM | 205 to 215 °C (dec.) | > 100000 nM | N[C@@H](Cc1cc(Cl)c(OCCc2cccc3nc(-c4ccccc4)oc23)c(Cl)c1)C(=O)O [Example 23] |  |  | ≥ 100 times | 
